For one series, the target named is T1, NMDA-receptor subtype 2B (Rattus norvegicus, UniProt P35439+Q00960).
T1 construct: Membranes were prepared by homogenization of the whole brain minus cerebellum and medulla oblongata; from tissue; host or cells: rat whole brain minus cerebellum and medulla oblongata, membrane preparation
Put plainly: 3H-Ro 25-6981 binding (displacement) on rat brain membranes. The settings on record: displacement of 5 nM 3H-Ro 25-6981, rat whole brain membranes (minus cerebellum and medulla oblongata), 2 hours at 4° C.

As usually defined, the IC50 is the concentration needed to halve the response being measured. The melting point is the temperature, or range, at which the solid turns liquid.

T1 sequence (Q00960 27-1482, other chains not shown): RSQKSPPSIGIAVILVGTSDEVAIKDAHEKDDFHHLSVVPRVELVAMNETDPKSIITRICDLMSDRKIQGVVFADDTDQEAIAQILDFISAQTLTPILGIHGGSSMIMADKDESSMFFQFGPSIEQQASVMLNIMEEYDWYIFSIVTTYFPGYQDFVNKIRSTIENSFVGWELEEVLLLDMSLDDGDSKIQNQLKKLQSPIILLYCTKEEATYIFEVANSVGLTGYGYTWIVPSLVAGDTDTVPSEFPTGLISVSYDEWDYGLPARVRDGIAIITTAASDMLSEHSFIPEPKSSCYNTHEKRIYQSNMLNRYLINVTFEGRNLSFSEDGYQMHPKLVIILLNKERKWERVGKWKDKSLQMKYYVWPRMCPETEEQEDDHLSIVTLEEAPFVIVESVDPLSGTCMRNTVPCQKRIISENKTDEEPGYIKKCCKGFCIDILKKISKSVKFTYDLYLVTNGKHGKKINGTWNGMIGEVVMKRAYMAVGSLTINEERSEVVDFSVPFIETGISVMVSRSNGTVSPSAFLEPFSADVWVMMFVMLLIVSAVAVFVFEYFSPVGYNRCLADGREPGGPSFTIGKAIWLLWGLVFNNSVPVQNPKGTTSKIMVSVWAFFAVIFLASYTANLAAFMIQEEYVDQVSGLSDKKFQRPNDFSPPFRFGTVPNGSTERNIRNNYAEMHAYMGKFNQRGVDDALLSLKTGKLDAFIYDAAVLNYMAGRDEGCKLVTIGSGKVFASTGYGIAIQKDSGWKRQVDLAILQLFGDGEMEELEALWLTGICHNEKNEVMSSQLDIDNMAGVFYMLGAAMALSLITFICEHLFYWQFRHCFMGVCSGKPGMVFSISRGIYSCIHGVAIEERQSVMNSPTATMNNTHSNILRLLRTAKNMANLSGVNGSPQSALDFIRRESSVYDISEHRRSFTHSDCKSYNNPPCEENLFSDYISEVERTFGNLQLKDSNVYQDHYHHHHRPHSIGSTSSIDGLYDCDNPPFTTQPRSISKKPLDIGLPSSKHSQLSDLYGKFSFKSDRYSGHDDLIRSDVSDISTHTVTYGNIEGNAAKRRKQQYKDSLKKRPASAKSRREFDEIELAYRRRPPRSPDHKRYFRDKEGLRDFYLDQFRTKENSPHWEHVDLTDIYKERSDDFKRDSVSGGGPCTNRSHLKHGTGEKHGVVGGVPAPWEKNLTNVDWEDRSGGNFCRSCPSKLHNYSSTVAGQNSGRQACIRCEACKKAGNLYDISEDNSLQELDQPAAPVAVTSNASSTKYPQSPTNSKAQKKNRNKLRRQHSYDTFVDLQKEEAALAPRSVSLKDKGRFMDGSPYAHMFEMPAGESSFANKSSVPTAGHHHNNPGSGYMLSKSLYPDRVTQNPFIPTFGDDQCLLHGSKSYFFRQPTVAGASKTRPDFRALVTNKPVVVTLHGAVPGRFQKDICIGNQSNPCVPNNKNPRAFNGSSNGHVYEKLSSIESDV

On to `Cc1nccn1Cc1cn(-c2ccc3c(c2)CCC3)cn1.Cl.Cl` [Example 16, 1H-Imidazole, 1-[[1-(2,3-Dihydro-1H-inden-5-yl)-1H-imidazol-4-yl]methyl]-2-methyl-, Hydrochloride (1:2)], for which the melting point lay in the range of 242 to 243 °C. This molecule also registered a 50% inhibitory concentration (IC50) on NMDA-receptor subtype 2B of 9 nM.
For `CCc1nccn1Cc1cn(-c2cccc(Cl)c2)cn1.Cl.Cl` [Example 174, 1H-Imidazole, 1-[[1-(3-Chlorophenyl)-1H-imidazol-4-yl]methyl]-2-ethyl-, Hydrochloride (1:2)] the same measures were > 200 °C (dec.) and 63 nM.
For `Cc1nccn1Cc1cn(-c2cccc(OC(F)(F)F)c2)cn1.Cl.Cl` [Example 170, 1H-Imidazole, 2-Methyl-1-[[1-[3-(trifluoromethoxy)phenyl]-1H-imidazol-4-yl]methyl]-, Hydrochloride (1:2)] the same measures were 221 to 223 °C and 39 nM.
For `CCc1nccn1Cc1cn(-c2cc(F)cc(Br)c2)cn1.Cl.Cl` [Example 199, 1H-Imidazole, 1-[[1-(3-Bromo-5-fluorophenyl)-1H-imidazol-4-yl]methyl]-2-ethyl-, Hydrochloride (1:2)] the same measures were > 200 °C (dec.) and 98 nM.
Regarding `CC(C)c1cccc(-n2cnc(Cn3ccnc3)c2)c1.Cl.Cl` [Example 154, 4-Imidazol-1-ylmethyl-1-(3-isopropyl-phenyl)-1H-imidazole Hydrochloride (1:2)], the melting point fell in the range of 200 to 206 °C. The molecule also returned an IC50 at NMDA-receptor subtype 2B of 48 nM.
For `CCc1cccc(-n2cnc(Cn3ccnc3CC)c2)c1.Cl.Cl` [Example 160, 1H-Imidazole, 2-Ethyl-1-[[1-(3-ethylphenyl)-1H-imidazol-4-yl]methyl]-, Hydrochloride (1:2)] the same measures were > 200 °C (dec.) and 16 nM.
For `Cc1nccn1Cc1cn(-c2cccc(C3CC3)c2)cn1.Cl.Cl` [Example 162, 1H-Imidazole, 1-[[1-(3-Cyclopropylphenyl)-1H-imidazol-4-yl]methyl]-2-methyl-, Hydrochloride (1:2)] the same measures were 174 to 175 °C and 16 nM.
For `Cc1nccn1Cc1cn(-c2cccc(C(C)C)c2)cn1.Cl.Cl` [Example 152, 1H-Imidazole, 1-[[1-(3-Isopropylphenyl)-1H-imidazol-4-yl]methyl]-2-methyl-, Hydrochloride (1:2)] the same measures were > 200 °C (dec.) and 10 nM.
Regarding `CCc1nccn1Cc1cn(-c2ccc(F)c(Cl)c2)cn1.Cl.Cl` [Example 94, 1H-Imidazole, 1-[[1-(3-Chloro-4-fluorophenyl)-1H-imidazol-4-yl]methyl]-2-ethyl-, Hydrochloride (1:2)], the melting point was in the range of 248 to 250 °C. In addition, the IC50 at NMDA-receptor subtype 2B turned out to be 21 nM.
For `CC(F)(F)c1cc(-n2cnc(Cn3ccnc3)c2)ccc1F.Cl.Cl` [Example 150, 1-[3-(1,1-Difluoro-ethyl)-4-fluoro-phenyl]-4-imidazol-1-ylmethyl-1H-imidazole Hydrochloride (1:2)] the same measures were > 200 °C (dec.) and 13.5 nM.
For `Cc1nccn1Cc1cn(-c2cccc(C(F)F)c2)cn1.Cl.Cl` [Example 194, 1H-Imidazole, 1-[[1-[3-(Difluoromethyl)phenyl]-1H-imidazol-4-yl]methyl]-2-methyl-, Hydrochloride (1:2)] the same measures were 195 to 196 °C and 79 nM.
For `Cc1nccn1Cc1cn(-c2cccc(I)c2)cn1.Cl.Cl` [Example 176, 1H-Imidazole, 1-[[1-(3-Iodophenyl)-1H-imidazol-4-yl]methyl]-2-methyl-, Hydrochloride (1:2)] the same measures were > 222 °C (dec.) and 32 nM.

The record behind these values is patent US6667335B2, “Imidazole derivatives” (Hoffmann-La Roche Inc., priority 2001, dated 2003).
